Reference: US20240139277A1, “DRUG CONTAINING ACTIVE SULFUR COMPOUND AS ITS MAIN COMPONENT” (priority 2020, published 2024)
“Also recorded” adds a separate entry of the source.

Legend:
[1] = test system: novel coronavirus (SARS-CoV-2); conditions: reported in NPL 2 and NPL 3; cited from earlier work
[2] = target: T1, papain-like protease (PLpro) (Severe acute respiratory syndrome coronavirus 2, UniProt P0DTC1); conditions: reported in literature; cited from earlier work
main protease (3CLpro) [3] = target: T2, main protease (3CLpro) (Severe acute respiratory syndrome coronavirus 2, UniProt P0DTC1); conditions: reported in literature; cited from earlier work
[4] = test system: influenza virus PR8 strain (A/PR/8/34 (H1N1)); assay: anti-influenza effect in mice (influenza A virus pneumonia); assay type: in vivo, B6 mice; conditions: nasal administration 50 μL, 1 mM, six hours before virus inoculation; vs PBS group; FIG. 3
Experimental: An influenza virus PR8 strain (A/PR/8/34 (H1N1), Akaike T. et al, Journal of Infectious Diseases, 170, 1023-1026, 1994) (2000 pfu/ml (PBS)) was administered to each of a plurality of B6 mice (ten 8-week-old mice for each group). This administration was performed by intratracheal administration of a virus solution (PBS 40 μL) under anesthesia. Furthermore, nasal administration of GSSSG (50 μL,1 mM) was performed under anesthesia six hours before the virus inoculation and then a survival rate of the mice, their lung damage (14 days after infection), and various kinds of inflammatory cell counts (three days after infection) were measured chronologically and analyzed. A group to which the GSSSG was administered was compared with a control group (PBS-administered group/no GSSG administered) concerning the survival rate, whether there is any lung damage or not, and the various kinds of inflammatory cell counts. Regarding the lung damage, pneumonia images were evaluated by means of HE staining. Regarding the measurement of the inflammatory cell counts, bronchoalveolar lavage (BAL) was performed by using PBS and the number of cells in BAL and cytokine were analyzed.

[5] = test system: SARS-CoV-2 JPN/TY/WK-521 strain; assay: anti-SARS-CoV-2 action test in VeroE6/TMPRSS2 cells, quantitative PCR; assay type: cell-based; conditions: GSSSG 10 μM, 100 μM, 300 μM vs no GSSSG; MOI 0.01; FIG. 6
[6] = test system: porcine pancreas elastase (PPE) induced emphysema models; assay: elastase-induced COPD / emphysema model; assay type: in vivo, CARS2-deficient B6 mice
Experimental: FIG. 4 is an example indicating the therapeutic effect of the GSSSG on elastase-induced COPD; and airway administration of GSSSG (50 μL, 1 mM) to porcine pancreas elastase (PPE) induced emphysema models of CARS2-deficient B6 mice^*1 was performed three times, that is, six hours before, two days later, and four days later, and an inflammatory cell count in a bronchial alveolar lavage fluid (BALF) five days after the PPE administration was measured and emphysema lesions were analyzed by using CT. The inflammatory cell count was measured in the same manner as in the example of FIG. 3. […] 2017.

[7] = target: T1, papain-like protease (PLpro); assay: SARS-CoV-2 protease inhibition test, papain-like protease; assay type: biochemical; conditions: 0.3 mM, 37 degrees Celsius, 15 minutes, MCA fluorogenic substrate, compared to control (GSSSG(−)); FIG. 5
bronchial asthma model = assay: bronchial asthma model; assay type: in vivo; conditions: mice
pulmonary fibrosis model = assay: pulmonary fibrosis model; assay type: in vivo; conditions: mice
main protease (3CLpro) [8] = target: T2, main protease (3CLpro); assay: SARS-CoV-2 protease inhibition test, main protease; assay type: biochemical; conditions: 0.3 mM, 37 degrees Celsius, 15 minutes, MCA fluorogenic substrate, compared to control (GSSSG(−)); FIG. 5

Row | Structure (SMILES) | proliferation suppression effect on SARS-CoV-2 [1] | inhibitory activity on PLpro as reported in NPL [2] | inhibitory activity on 3CLpro as reported in NPL (main protease (3CLpro) [3]) | effect on influenza A virus pneumonia [4] | RNA viral load [5] | inflammatory cell count in bronchial alveolar lavage fluid (BALF) ([6]; airway administration 50 μL, 1 mM, three times, five days after PPE administration, vs GSSSG(−), FIG. 4) | emphysema lesions by CT ([6]; airway administration 50 μL, 1 mM, three times, vs GSSSG(−), FIG. 4) | therapeutic effect in COPD model ([6]; mice) | inhibitory activity on protease activity (PLpro) [7] | therapeutic effect in bronchial asthma model (bronchial asthma model) | therapeutic effect in pulmonary fibrosis model (pulmonary fibrosis model) | inhibitory activity on protease activity (3CLpro) (main protease (3CLpro) [8])
1 | O=c1c2ccccc2[se]n1-c1ccccc1 [Ebselen, 2-Phenyl-1,2-benzoisoselenazol-3(2H)-one] | conspicuous proliferation suppression effect | strong inhibitory activity | strong inhibitory activity | – | – | – | – | – | – | – | – | –
2 | N[C@@H](CCC(=O)N[C@@H](CSSSC[C@H](NC(=O)CC[C@H](N)C(=O)O)C(=O)NCC(=O)O)C(=O)NCC(=O)O)C(=O)O [GSSSG, glutathione trisulfide] | – | – | – | preventive and therapeutic effects; also recorded: improving severe pneumonia | RNA viral load decreases along with an increase in the dosage | small as compared to that of the no GSSSG-administered group | remission of the emphysema has been achieved | therapeutic effect of the GSSSG was also confirmed; also recorded: alleviates respiratory tract and lung damage and pulmonary fibrosis | same level of strong inhibitory activity | therapeutic effect of the GSSSG was also confirmed; also recorded: alleviates respiratory tract and lung damage and pulmonary fibrosis | therapeutic effect of the GSSSG was also confirmed; also recorded: alleviates respiratory tract and lung damage and pulmonary fibrosis | same level of strong inhibitory activity
